Measurements taken from US20060025434A1, “Therapeutic agents for drug/substance dependence” (Toray Industries, Inc., priority 2003, published 2006).

Tested on: SD male rats
Assay: Conditioned place preference (CPP) test: recovery after acquisition of methamphetamine-induced psychological dependence
Type: in vivo
Settings: 0.3 mg/kg subcutaneous twice per day, after methamphetamine (2.0 mg/kg s.c.) conditioning
Description: Effect of Compound 1 in Promoting the Recovery Process after Acquisition of Psychological Dependence by a Stimulant Drug (Therapeutic Effect for Stimulant Drug Dependence)
The effect of compound 1 in promoting recovery during the convalescence after the acquisition of psychological dependence by a stimulant drug was discussed using the conditioned place preference method (Suzuki, T., et al., Psychopharmacology, 102, 438, 1990; Spyraki, C., The Psychopharmacology of Addiction, p. 96, Oxford Medical Publication, New York, 1988; hereinafter called “CPP method”). As a stimulant drug forming psychological dependence, methamphetamine hydrochloride was used. Furthermore, as a therapeutic agent for drug dependence, compound 1 was used.
For the experiment, SD male rats were used. The experimental apparatus used was a CPP apparatus having two compartments (one black, the other white). In the experiment, at first, the rats were trained for being conditioned with the sensory effect of the drug and the environments (white and black) in the apparatus for 6 days. The conditioned rats were placed and tested in the apparatus without drug administration. The drug dependence was evaluated with the residence time of the rats in the white and black boxes in the test session, as an indicator, in reference to whether the rats preferred the drug-induced sensory effect. […]

Oc1ccc2c3c1O[C@H]1c4c(c5cc(F)cc6c5n4CCC6)C[C@@]4(O)[C@@H](C2)N(CC2CC2)CC[C@]314 [Compound 1]
recovery from the state of stimulant drug dependence (CPP residence time) (7th day after start of administration, significance level 5% or less vs solvent): significant recovery
recovery from the state of stimulant drug dependence (CPP residence time) (from the 4th day after start of administration): apparent recovery
